Laboratory results from PubChem BioAssay (NCI).
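Each compound was tested at five concentrations against cells in 96-well plates for 48 hours. TGI marks complete inhibition of growth.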

Columns and labels:
Test in all cases: NCI-60 cell line screen, 48 h
[1] = tested on: A549 NSCLC
[2] = tested on: KM12 colon
[3] = tested on: ACHN renal
[4] = tested on: SK-MEL-2 melanoma
[5] = tested on: K-562 leukemia
[6] = tested on: DU-145 prostate
[7] = tested on: SK-MEL-28 melanoma
[8] = tested on: HS 578T breast
[9] = tested on: MDA-N
[10] = tested on: NCI-H460 lung

Oc1ccc(-c2nc(-c3cccnc3)c(-c3ccc(Cl)cc3)[nH]2)cc1
TGI [1]: 30.1 µM
TGI [2]: 25.7 µM
TGI [3]: 27.6 µM
TGI [4]: 32.8 µM
TGI [5]: > 100 µM
TGI [6]: 29.4 µM
TGI [7]: 32.1 µM
TGI [8]: 56 µM
TGI [9]: 26.3 µM
TGI [10]: 24 µM

CCN(CC)C(=O)Cn1c(C)cc2ccccc21
TGI [1]: > 100 µM
TGI [2]: > 100 µM
TGI [3]: > 100 µM
TGI [4]: > 100 µM
TGI [5]: > 100 µM
TGI [6]: > 100 µM
TGI [7]: > 100 µM
TGI [8]: > 100 µM
TGI [9]: > 100 µM
TGI [10]: > 100 µM

COc1cccc(-c2ccc3c4c2O[C@H]2C(=O)CC[C@@]5(O)[C@@H](C3)N(CC3CC3)CC[C@]425)c1
TGI [1]: 35.5 µM
TGI [2]: 31.7 µM
TGI [3]: 35.9 µM
TGI [4]: 34.1 µM
TGI [5]: 28.6 µM
TGI [6]: 63.4 µM
TGI [7]: > 100 µM
TGI [8]: 29.1 µM
TGI [9]: 39.3 µM
TGI [10]: 50.7 µM

NC(N)=NCCC[C@H](N)C(=O)NCC(=O)N[C@@H](CC(=O)O)c1ncc(NC(=O)C(F)(F)F)o1
TGI [1]: > 25 µM
TGI [2]: > 25 µM
TGI [3]: > 25 µM
TGI [4]: > 25 µM
TGI [5]: > 25 µM
TGI [6]: > 25 µM
TGI [7]: > 25 µM
TGI [8]: > 25 µM
TGI [10]: > 25 µM

CSc1ncnc2c1ncn2C1CC(Oc2ccc(C)cc2)C(COc2ccc(C)cc2)O1 (stereo unspecified)
TGI [1]: > 100 µM
TGI [2]: > 100 µM
TGI [3]: > 100 µM
TGI [4]: > 100 µM
TGI [6]: > 100 µM
TGI [7]: > 100 µM
TGI [8]: > 100 µM
TGI [9]: > 100 µM
TGI [10]: > 100 µM

COc1ccc2ccccc2c1/C=C/C(=O)c1ccccc1
TGI [1]: 10.4 µM
TGI [2]: 8 µM
TGI [3]: 11.1 µM
TGI [4]: 3.64 µM
TGI [5]: 6.28 µM
TGI [6]: 8.89 µM
TGI [7]: 17.9 µM
TGI [8]: 38.7 µM
TGI [9]: 13.4 µM
TGI [10]: 3.76 µM

CC(C)=CCC/C(C)=C/C=C/C(C)=C/C=C/C(C)=C/C=C/C=C(C)/C=C/C=C(C)/C=C/[C@H]1C(C(C)(C)O)CC[C@]1(C)O (stereo partly specified)
TGI [2]: 70.6 µM
TGI [3]: 45.5 µM
TGI [4]: > 100 µM
TGI [5]: 63.6 µM
TGI [6]: 49.9 µM
TGI [7]: 41.9 µM
TGI [8]: 59.1 µM
TGI [9]: 81.6 µM
TGI [10]: > 100 µM

O=C(NNC(=S)Nc1cccc(Cl)c1)c1cc(-c2ccccc2)nc2ccccc12
TGI [1]: 32.3 µM
TGI [2]: 49 µM
TGI [3]: 31.8 µM
TGI [4]: 27.7 µM
TGI [5]: > 100 µM
TGI [6]: 29.5 µM
TGI [7]: 26.5 µM
TGI [8]: 41.9 µM
TGI [9]: 36.5 µM
TGI [10]: 39.6 µM

COc1cc(/C=C2\C(=O)N(c3ccccc3)C(c3ccccc3)S2(=O)=O)cc(OC)c1OC (stereo unspecified)
TGI [1]: > 100 µM
TGI [2]: > 100 µM
TGI [3]: > 100 µM
TGI [4]: > 100 µM
TGI [5]: > 100 µM
TGI [6]: > 100 µM
TGI [7]: > 100 µM
TGI [8]: > 100 µM
TGI [9]: 48.3 µM
TGI [10]: > 100 µM

CCOC(=O)c1cc(C(O)P2(=O)N(CC(C)(C)C)[C@@H]3CCCC[C@H]3N2CC(C)(C)C)cn1C(=O)OC(C)(C)C (stereo partly specified)
TGI [1]: 38.8 µM
TGI [2]: 29.2 µM
TGI [3]: > 100 µM
TGI [4]: 32.8 µM
TGI [5]: 47 µM
TGI [6]: 36.2 µM
TGI [7]: 30.3 µM
TGI [8]: 36.1 µM
TGI [9]: 28 µM
